According to patent publication US4652649A, “Anti-spasmodic agents having a ring in the main chain” (United Pharmaceuticals, Inc., priority 1985, dated 1987):
Where a name gives a salt, the structure may show the parent alone.

How the values were obtained:
muscarinic receptors = type: binding, rabbit (New Zealand White); conditions: at a concentration of 1.0 × 10^-5 M; rabbit lung homogenate, 0.1 nM [3H]QNB, 37° C., 60 min
[1] = system: gastrointestinal tract, biliary tract, ureter and uterus; conditions: cited from earlier work

Row | Compound | % inhibition of 3H[QNB] binding (muscarinic receptors) | decrease spasm of the gastrointestinal tract, biliary tract, ureter and uterus ([1]; in vivo) | atropinic side effects ([1]; salivary and sweat glands, GI glands, the eye or the cardiovascular system)
1 | CCN(CC)CCSC(=O)c1ccc(C(C)(C)C)cc1 [4-t-butyl-benzoyl-thio-S-(2-diethylaminoethyl)-ester.HCl] | 21% | – | –
2 | CCN(CC)CCSC(=O)C(c1ccccc1)c1ccccc1 [Thiphenamil hydrochloride] | – | decrease spasm of the gastrointestinal tract, biliary tract, ureter and uterus | without producing characteristic atropinic side effects
